Reference: PubChem BioAssay AID2060607 (Molecular Pharmacology Branch, DTP, NCI, 2025)

System: 876862-298-R-J1-PDC complex spheroids, viability % test/control
Experiment: Anticancer human tumor 876862-298-R-J1-PDC patient-derived endometrial carcinoma cell line growth inhibition [CLK]
Details: for IC50: curve of first compound; for viability, T/C: stronger effect = lower value
Method in brief: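 Multi-cell-type spheroids combined patient-derived tumor cells with HUVEC endothelial cells and human mesenchymal stem cells. Paired agents were dosed in half-log steps down from about clinical Cmax, or from 10 microM where Cmax was unknown.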

[1] = second compound 0.0316 µM, first compound 0.0316 µM
[2] = second compound 0.0316 µM, first compound 0.1 µM
[3] = second compound 0.0316 µM, first compound 0.316 µM
[4] = second compound 0.0316 µM, first compound 1 µM
[5] = second compound 0.0316 µM, first compound 3.16 µM
[6] = second compound 0.0316 µM, first compound 10 µM
[7] = second compound 0.1 µM, first compound 0.0316 µM
[8] = second compound 0.1 µM, first compound 0.1 µM
[9] = second compound 0.1 µM, first compound 0.316 µM
[10] = second compound 0.1 µM, first compound 1 µM
[11] = second compound 0.1 µM, first compound 3.16 µM
[12] = second compound 0.1 µM, first compound 10 µM
[13] = second compound 0.316 µM, first compound 0.0316 µM
[14] = second compound 0.316 µM, first compound 0.1 µM
[15] = second compound 0.316 µM, first compound 0.316 µM
[16] = second compound 0.316 µM, first compound 1 µM
[17] = second compound 0.316 µM, first compound 3.16 µM
[18] = second compound 0.316 µM, first compound 10 µM
[19] = second compound 1 µM, first compound 0.0316 µM
[20] = second compound 1 µM, first compound 0.1 µM
[21] = second compound 1 µM, first compound 0.316 µM
[22] = second compound 1 µM, first compound 1 µM
[23] = second compound 1 µM, first compound 3.16 µM
[24] = second compound 1 µM, first compound 10 µM
[25] = second compound 3.16 µM, first compound 0.0316 µM
[26] = second compound 3.16 µM, first compound 0.1 µM
[27] = second compound 3.16 µM, first compound 0.316 µM
[28] = second compound 3.16 µM, first compound 1 µM
[29] = second compound 3.16 µM, first compound 3.16 µM
[30] = second compound 3.16 µM, first compound 10 µM
[31] = second compound 10 µM, first compound 0.0316 µM
[32] = second compound 10 µM, first compound 0.1 µM
[33] = second compound 10 µM, first compound 0.316 µM
[34] = second compound 10 µM, first compound 1 µM
[35] = second compound 10 µM, first compound 3.16 µM
[36] = second compound 10 µM, first compound 10 µM
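Note: spheroids exposed to drugs for 7 days before readout.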
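Throughout, for viability, T/C: 100% = DMSO vehicle control wells.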

COc1ccc([C@@H](O)c2cc(-c3ncnc4cc(N5CCOCC5)ccc34)c(F)cc2Cl)nn1 + CN1CCN(c2cc(C(=O)Nc3cc4cc(-c5cnn(C)c5)ccc4cn3)ccn2)CC1
IC50 (second compound 0.0316 µM): 4.95 µM
IC50 (second compound 0.1 µM): < 0.0316 µM
IC50 (second compound 0.316 µM): < 0.0316 µM
IC50 (second compound 1 µM): < 0.0316 µM
IC50 (second compound 3.16 µM): < 0.0316 µM
IC50 (second compound 10 µM): < 0.0316 µM
viability, T/C [1]: 93.3%
viability, T/C [2]: 90%
viability, T/C [3]: 86%
viability, T/C [4]: 84.2%
viability, T/C [5]: 59.2%
viability, T/C [6]: 35%
viability, T/C [7]: 46.2%
viability, T/C [8]: 43.4%
viability, T/C [9]: 47%
viability, T/C [10]: 42.8%
viability, T/C [11]: 31.5%
viability, T/C [12]: 21.1%
viability, T/C [13]: 2.02%
viability, T/C [14]: 2.01%
viability, T/C [15]: 3%
viability, T/C [16]: 2.2%
viability, T/C [17]: 1.56%
viability, T/C [18]: 2.98%
viability, T/C [19]: 0.64%
viability, T/C [20]: 0.77%
viability, T/C [21]: 0.64%
viability, T/C [22]: 0.69%
viability, T/C [23]: 0.55%
viability, T/C [24]: 2.27%
viability, T/C [25]: 1.08%
viability, T/C [26]: 2.43%
viability, T/C [27]: 1.6%
viability, T/C [28]: 1%
viability, T/C [29]: 2.06%
viability, T/C [30]: 1.3%
viability, T/C [31]: 0.75%
viability, T/C [32]: 0.99%
viability, T/C [33]: 1.44%
viability, T/C [34]: 1.58%
viability, T/C [35]: 1.58%
viability, T/C [36]: 1.69%

C=CC(=O)N1CCN(c2nc(=O)n(-c3c(C)ccnc3C(C)C)c3nc(-c4c(O)cccc4F)c(F)cc23)C(C)C1 (stereo not drawn) + CNC(=O)c1ccc(Nc2nc(OC3CCCC3)c3c(-c4ccc5nc(C)oc5c4)c[nH]c3n2)c(OC)c1
IC50 (second compound 0.0316 µM): > 10 µM
IC50 (second compound 0.1 µM): 0.322 µM
IC50 (second compound 0.316 µM): < 0.0316 µM
IC50 (second compound 1 µM): < 0.0316 µM
IC50 (second compound 3.16 µM): < 0.0316 µM
IC50 (second compound 10 µM): < 0.0316 µM
viability, T/C [1]: 70.2%
viability, T/C [2]: 84.2%
viability, T/C [3]: 69%
viability, T/C [4]: 90.2%
viability, T/C [5]: 80.9%
viability, T/C [6]: 60.5%
viability, T/C [7]: 52.4%
viability, T/C [8]: 54.5%
viability, T/C [9]: 46%
viability, T/C [10]: 46.9%
viability, T/C [11]: 50.2%
viability, T/C [12]: 41%
viability, T/C [13]: 42.7%
viability, T/C [14]: 43.5%
viability, T/C [15]: 42.2%
viability, T/C [16]: 39.6%
viability, T/C [17]: 46.1%
viability, T/C [18]: 35.2%
viability, T/C [19]: 32.4%
viability, T/C [20]: 29.6%
viability, T/C [21]: 30.1%
viability, T/C [22]: 29.3%
viability, T/C [23]: 29.3%
viability, T/C [24]: 23.3%
viability, T/C [25]: 24%
viability, T/C [26]: 25.2%
viability, T/C [27]: 23.1%
viability, T/C [28]: 21.6%
viability, T/C [29]: 23.5%
viability, T/C [30]: 13.6%
viability, T/C [31]: 24.6%
viability, T/C [32]: 19.5%
viability, T/C [33]: 19.1%
viability, T/C [34]: 22.7%
viability, T/C [35]: 20.1%
viability, T/C [36]: 10.2%

CCCS(=O)(=O)Nc1ccc(F)c(C(=O)c2c[nH]c3ncc(-c4ccc(Cl)cc4)cc23)c1F + CNC(=O)c1ccc(Nc2nc(OC3CCCC3)c3c(-c4ccc5nc(C)oc5c4)c[nH]c3n2)c(OC)c1
IC50 (second compound 0.0316 µM): 7.04 µM
IC50 (second compound 0.1 µM): < 0.0316 µM
IC50 (second compound 0.316 µM): < 0.0316 µM
IC50 (second compound 1 µM): < 0.0316 µM
IC50 (second compound 3.16 µM): < 0.0316 µM
IC50 (second compound 10 µM): < 0.0316 µM
viability, T/C [1]: 72.1%
viability, T/C [2]: 89.1%
viability, T/C [3]: 88.1%
viability, T/C [4]: 90.9%
viability, T/C [5]: 68.2%
viability, T/C [6]: 42%
viability, T/C [7]: 40.2%
viability, T/C [8]: 54.9%
viability, T/C [9]: 50.5%
viability, T/C [10]: 49.2%
viability, T/C [11]: 40.4%
viability, T/C [12]: 26.6%
viability, T/C [13]: 45.6%
viability, T/C [14]: 41.2%
viability, T/C [15]: 43.8%
viability, T/C [16]: 40.1%
viability, T/C [17]: 31.7%
viability, T/C [18]: 18.1%
viability, T/C [19]: 36.9%
viability, T/C [20]: 32%
viability, T/C [21]: 30.7%
viability, T/C [22]: 32.7%
viability, T/C [23]: 22.4%
viability, T/C [24]: 12.7%
viability, T/C [25]: 23.5%
viability, T/C [26]: 25.1%
viability, T/C [27]: 21.2%
viability, T/C [28]: 26.1%
viability, T/C [29]: 19.1%
viability, T/C [30]: 10.8%
viability, T/C [31]: 23.1%
viability, T/C [32]: 21.4%
viability, T/C [33]: 21%
viability, T/C [34]: 22.3%
viability, T/C [35]: 15.9%
viability, T/C [36]: 10.4%

COC1C=CCC(C)C(C)S(=O)(=O)NC(=O)c2ccc3c(c2)N(CC2CCC21)CC1(CCCc2cc(Cl)ccc21)CO3 (stereo not drawn) + CNC(=O)c1ccc(Nc2nc(OC3CCCC3)c3c(-c4ccc5nc(C)oc5c4)c[nH]c3n2)c(OC)c1
IC50 (second compound 0.0316 µM): 6.47 µM
IC50 (second compound 0.1 µM): < 0.0316 µM
IC50 (second compound 0.316 µM): < 0.0316 µM
IC50 (second compound 1 µM): < 0.0316 µM
IC50 (second compound 3.16 µM): < 0.0316 µM
IC50 (second compound 10 µM): < 0.0316 µM
viability, T/C [1]: 72%
viability, T/C [2]: 92.5%
viability, T/C [3]: 66.1%
viability, T/C [4]: 104%
viability, T/C [5]: 86.2%
viability, T/C [6]: 29.1%
viability, T/C [7]: 46.2%
viability, T/C [8]: 45.4%
viability, T/C [9]: 37.3%
viability, T/C [10]: 32.2%
viability, T/C [11]: 30.3%
viability, T/C [12]: 21.5%
viability, T/C [13]: 40.3%
viability, T/C [14]: 33.6%
viability, T/C [15]: 29.8%
viability, T/C [16]: 24.8%
viability, T/C [17]: 20.5%
viability, T/C [18]: 19.1%
viability, T/C [19]: 31.9%
viability, T/C [20]: 25.8%
viability, T/C [21]: 20.6%
viability, T/C [22]: 17.6%
viability, T/C [23]: 13.8%
viability, T/C [24]: 13.5%
viability, T/C [25]: 26.1%
viability, T/C [26]: 20.3%
viability, T/C [27]: 15.6%
viability, T/C [28]: 12%
viability, T/C [29]: 9.4%
viability, T/C [30]: 7.9%
viability, T/C [31]: 22.6%
viability, T/C [32]: 19%
viability, T/C [33]: 12.3%
viability, T/C [34]: 12.3%
viability, T/C [35]: 9.91%
viability, T/C [36]: 5.3%
